From the CheMixHub viscosity set
Several values for one entry are separate records, joined by “and”; a condition that tells them apart may be missing. Equal entries are not always repeated.

What was measured:
[1] = xn = mol fraction of the nth substance listed

C=CC(=O)OCC
viscosity
Settings	293.15 K	298.15 K	303.15 K	308.15 K	313.15 K	318.15 K
100 kPa	0.5685 mPa·s	0.533 mPa·s	0.5 mPa·s	0.4643 mPa·s	0.423 mPa·s	0.3813 mPa·s
101 kPa	0.5685 mPa·s and 0.573 mPa·s	–	0.5 mPa·s and 0.504 mPa·s and 0.502 mPa·s	–	0.423 mPa·s and 0.443 mPa·s and 0.42 mPa·s	0.3813 mPa·s and 0.421 mPa·s

COCCOCCOCCOCCOC
viscosity
Settings	293.15 K	298 K	298.15 K	303.15 K	308.15 K	318.15 K	323.15 K
101 kPa	3.795 mPa·s	3.295 mPa·s	–	2.955 mPa·s	2.646 mPa·s and 2.643 mPa·s and 2.524 mPa·s	2.168 mPa·s and 2.11 mPa·s	1.975 mPa·s
101.33 kPa	–	–	3.394 mPa·s	–	–	–	–

OC1CCCC1
100 kPa
Settings	viscosity
293.15 K	12.9 mPa·s
298.15 K	10.41 mPa·s
303.15 K	8.2 mPa·s and 8.088 mPa·s
308.15 K	6.85 mPa·s and 6.528 mPa·s
318.15 K	4.742 mPa·s
318.16 K	4.87 mPa·s

CCO
Settings	viscosity
293.61 K, 100 kPa	1.18 mPa·s
293.91 K, 100 kPa	1.17 mPa·s
294.21 K, 100 kPa	1.17 mPa·s
294.52 K, 100 kPa	1.16 mPa·s
294.82 K, 100 kPa	1.16 mPa·s
295.12 K, 100 kPa	1.15 mPa·s
295.42 K, 100 kPa	1.15 mPa·s
295.73 K, 100 kPa	1.14 mPa·s
296.03 K, 100 kPa	1.14 mPa·s
296.33 K, 100 kPa	1.13 mPa·s
296.64 K, 100 kPa	1.13 mPa·s
296.94 K, 100 kPa	1.12 mPa·s
297.24 K, 100 kPa	1.12 mPa·s
298.15 K, 101 kPa	1.03 mPa·s
299.06 K, 100 kPa	1.08 mPa·s
299.36 K, 100 kPa	1.08 mPa·s
299.67 K, 100 kPa	1.07 mPa·s
299.97 K, 100 kPa	1.07 mPa·s
300.27 K, 100 kPa	1.06 mPa·s
300.58 K, 100 kPa	1.06 mPa·s
300.88 K, 100 kPa	1.05 mPa·s
301.18 K, 100 kPa	1.05 mPa·s
301.48 K, 100 kPa	1.04 mPa·s
301.79 K, 100 kPa	1.04 mPa·s
302.09 K, 100 kPa	1.03 mPa·s
302.39 K, 100 kPa	1.03 mPa·s
303.15 K, 100 kPa	0.989 mPa·s
303.15 K, 101.33 kPa	0.988 mPa·s
303.61 K, 100 kPa	1.01 mPa·s
303.91 K, 100 kPa	1 mPa·s
304.21 K, 100 kPa	1 mPa·s
304.52 K, 100 kPa	0.99 mPa·s
304.82 K, 100 kPa	0.99 mPa·s
305.12 K, 100 kPa	0.98 mPa·s
305.42 K, 100 kPa	0.98 mPa·s
305.73 K, 100 kPa	0.97 mPa·s
306.03 K, 100 kPa	0.97 mPa·s
306.33 K, 100 kPa	0.96 mPa·s
306.64 K, 100 kPa	0.96 mPa·s
306.94 K, 100 kPa	0.95 mPa·s
307.24 K, 100 kPa	0.95 mPa·s
307.55 K, 100 kPa	0.94 mPa·s
307.85 K, 100 kPa	0.94 mPa·s
308.15 K, 100 kPa	0.93 mPa·s
308.45 K, 100 kPa	0.93 mPa·s
308.76 K, 100 kPa	0.92 mPa·s
309.06 K, 100 kPa	0.92 mPa·s
309.36 K, 100 kPa	0.91 mPa·s
309.67 K, 100 kPa	0.91 mPa·s
309.97 K, 100 kPa	0.9 mPa·s
310.27 K, 100 kPa	0.9 mPa·s
310.58 K, 100 kPa	0.89 mPa·s
310.88 K, 100 kPa	0.89 mPa·s
311.18 K, 100 kPa	0.88 mPa·s
311.48 K, 100 kPa	0.88 mPa·s
313.15 K, 100 kPa	0.8179 mPa·s and 0.82 mPa·s
313.15 K, 101.32 kPa	0.835 mPa·s
318.15 K, 100 kPa	0.75 mPa·s
323 K, 101.33 kPa	0.673 mPa·s and 0.673 mPa·s
323.15 K, 101.32 kPa	0.702 mPa·s

CCCCCCCCCCCCCCCCCCCCCC
Settings	viscosity [mPa·s]
323.1 K, 101.3 kPa	4.128

CCc1ccccc1
Settings	viscosity
298 K, 101 kPa	0.6295 mPa·s
298.15 K, 101 kPa	0.6076 mPa·s and 0.631 mPa·s
298.15 K, 101.3 kPa	0.657 mPa·s
298.15 K, 101.33 kPa	0.625 mPa·s
303 K, 101.33 kPa	0.574 mPa·s
303.15 K, 100 kPa	0.592 mPa·s
303.15 K, 101 kPa	0.5916 mPa·s
303.15 K, 101.33 kPa	0.584 mPa·s
308.15 K, 100 kPa	0.56 mPa·s
308.15 K, 101.33 kPa	0.5797 mPa·s and 0.56 mPa·s
313 K, 101.33 kPa	0.513 mPa·s
313.15 K, 100 kPa	0.53 mPa·s
313.15 K, 101.33 kPa	0.531 mPa·s
318.15 K, 100 kPa	0.503 mPa·s
318.15 K, 101.33 kPa	0.502 mPa·s and 0.5038 mPa·s
323 K, 101.33 kPa	0.464 mPa·s
323.15 K, 100 kPa	0.478 mPa·s
323.15 K, 101.33 kPa	0.474 mPa·s

OCCCCCO
101 kPa
Settings	viscosity [mPa·s]
313.15 K	45.63
318.15 K	36.87
323.15 K	29.8

N#CCCCCC#N
Settings	viscosity [mPa·s]
303.15 K, 101.33 kPa	4.905

CCCC(C)C
101.33 kPa
Settings	viscosity [mPa·s]
298 K	0.2753
298.15 K	0.2767

COC(C)(C)C
viscosity
Settings	293.15 K	298.15 K	303.15 K	308.15 K	313.15 K	318.15 K	323.15 K
100 kPa	0.345 mPa·s	0.32 mPa·s	0.297 mPa·s	0.275 mPa·s	0.252 mPa·s	0.231 mPa·s	0.206 mPa·s
101 kPa	0.387 mPa·s and 0.371 mPa·s	0.374 mPa·s and 0.3558 mPa·s and 0.348 mPa·s	–	0.341 mPa·s and 0.3245 mPa·s	0.321 mPa·s	0.297 mPa·s	0.276 mPa·s
101.33 kPa	0.3861 mPa·s and 0.3861 mPa·s	0.3687 mPa·s and 0.3687 mPa·s and 0.3353 mPa·s	0.3163 mPa·s	–	0.2876 mPa·s	–	–

COC(C)(C)C + CO
[1], 298.15 K
Settings	viscosity [mPa·s]
101 kPa, x1 = 0.0512	0.547
101 kPa, x1 = 0.0994	0.536
101 kPa, x1 = 0.1991	0.488
101 kPa, x1 = 0.3011	0.455
101 kPa, x1 = 0.4015	0.436
101 kPa, x1 = 0.4993	0.42
101 kPa, x1 = 0.6001	0.402
101 kPa, x1 = 0.7001	0.387
101 kPa, x1 = 0.8007	0.376
101 kPa, x1 = 0.8998	0.366
101 kPa, x1 = 0.9494	0.36
101.33 kPa, x1 = 0.0048	0.549
101.33 kPa, x1 = 0.0234	0.547
101.33 kPa, x1 = 0.0483	0.544
101.33 kPa, x1 = 0.0818	0.535
101.33 kPa, x1 = 0.1136	0.526
101.33 kPa, x1 = 0.1601	0.51
101.33 kPa, x1 = 0.1987	0.496
101.33 kPa, x1 = 0.2377	0.483
101.33 kPa, x1 = 0.2656	0.475
101.33 kPa, x1 = 0.3162	0.462
101.33 kPa, x1 = 0.3736	0.446
101.33 kPa, x1 = 0.4299	0.433
101.33 kPa, x1 = 0.481	0.42
101.33 kPa, x1 = 0.5141	0.413
101.33 kPa, x1 = 0.5796	0.399
101.33 kPa, x1 = 0.6163	0.394
101.33 kPa, x1 = 0.7002	0.382
101.33 kPa, x1 = 0.7768	0.37
101.33 kPa, x1 = 0.8313	0.363
101.33 kPa, x1 = 0.898	0.356
101.33 kPa, x1 = 0.9429	0.346

CCCC(C)C + CCCCCCCCCCCCCC
[1], 298 K, 101.33 kPa
Settings	viscosity [mPa·s]
x1 = 0.1041	1.795
x1 = 0.2003	1.595
x1 = 0.3021	1.362
x1 = 0.4053	1.136
x1 = 0.5024	0.9502
x1 = 0.6012	0.7806
x1 = 0.7022	0.6276
x1 = 0.8003	0.4899
x1 = 0.8985	0.3762

CC(F)(F)F + FCC(F)(F)F
viscosity [mPa·s], [1], 101 kPa
Settings	x2 = 0.247	x2 = 0.5	x2 = 0.743
298.15 K	0.126	0.1447	0.1691
313.15 K	0.105	0.1187	0.1358

COCCOCCOCCOCCOC + CC(C)O
viscosity [mPa·s], [1], 101 kPa
Settings	x1 = 0.0021	x1 = 0.0042	x1 = 0.00994	x1 = 0.014	x1 = 0.0152	x1 = 0.025	x1 = 0.0355	x1 = 0.0719	x1 = 0.0734	x1 = 0.0994
298.15 K	2.074	2.059	2.022	1.999	1.996	1.934	1.941	1.86	1.883	1.83
308.15 K	1.555	1.549	1.53	1.52	1.52	1.512	1.484	1.465	1.489	1.444
318.15 K	1.188	1.185	1.179	1.177	1.18	1.18	1.172	1.163	1.167	1.159
